Consider seven compounds from ChEMBL document CHEMBL3991601, “The target landscape of clinical kinase drugs” (Science, 2017).

Molecules are shown by their SMILES. Activity calls are given as the source filed them.

In assay [1] the target is T1, Tyrosine-protein kinase Mer (Homo sapiens, UniProt Q12866).
T1 sequence (Q12866 whole entry): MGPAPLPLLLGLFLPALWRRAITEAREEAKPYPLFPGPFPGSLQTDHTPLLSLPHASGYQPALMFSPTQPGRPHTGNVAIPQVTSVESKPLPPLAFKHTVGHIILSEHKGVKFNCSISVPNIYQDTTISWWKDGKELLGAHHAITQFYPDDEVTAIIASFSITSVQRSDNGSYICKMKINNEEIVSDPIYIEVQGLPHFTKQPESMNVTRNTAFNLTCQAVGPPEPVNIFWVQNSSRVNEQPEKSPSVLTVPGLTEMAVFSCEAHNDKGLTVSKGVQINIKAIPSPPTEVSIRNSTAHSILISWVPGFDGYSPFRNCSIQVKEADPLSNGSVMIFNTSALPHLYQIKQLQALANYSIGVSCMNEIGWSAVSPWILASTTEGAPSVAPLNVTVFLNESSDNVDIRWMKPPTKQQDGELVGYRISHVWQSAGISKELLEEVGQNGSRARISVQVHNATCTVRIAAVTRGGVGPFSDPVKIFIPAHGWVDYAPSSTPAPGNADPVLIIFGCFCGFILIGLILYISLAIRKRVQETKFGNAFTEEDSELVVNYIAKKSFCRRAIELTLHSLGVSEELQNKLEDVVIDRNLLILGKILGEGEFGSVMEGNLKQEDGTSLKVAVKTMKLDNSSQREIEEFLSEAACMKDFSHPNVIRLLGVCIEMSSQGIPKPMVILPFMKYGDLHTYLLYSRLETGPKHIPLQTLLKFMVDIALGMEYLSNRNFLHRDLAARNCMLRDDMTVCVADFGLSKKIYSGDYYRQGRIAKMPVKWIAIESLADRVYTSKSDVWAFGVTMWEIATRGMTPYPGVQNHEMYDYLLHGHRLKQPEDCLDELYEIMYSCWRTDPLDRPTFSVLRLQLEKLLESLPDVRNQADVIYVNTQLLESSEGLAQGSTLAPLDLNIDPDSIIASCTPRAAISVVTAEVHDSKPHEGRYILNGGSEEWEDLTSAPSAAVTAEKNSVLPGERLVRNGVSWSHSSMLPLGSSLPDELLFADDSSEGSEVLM

Assay [2] deals with Serine/threonine-protein kinase 38 (Homo sapiens, UniProt Q15208).
Serine/threonine-protein kinase 38, sequence (Q15208 whole entry): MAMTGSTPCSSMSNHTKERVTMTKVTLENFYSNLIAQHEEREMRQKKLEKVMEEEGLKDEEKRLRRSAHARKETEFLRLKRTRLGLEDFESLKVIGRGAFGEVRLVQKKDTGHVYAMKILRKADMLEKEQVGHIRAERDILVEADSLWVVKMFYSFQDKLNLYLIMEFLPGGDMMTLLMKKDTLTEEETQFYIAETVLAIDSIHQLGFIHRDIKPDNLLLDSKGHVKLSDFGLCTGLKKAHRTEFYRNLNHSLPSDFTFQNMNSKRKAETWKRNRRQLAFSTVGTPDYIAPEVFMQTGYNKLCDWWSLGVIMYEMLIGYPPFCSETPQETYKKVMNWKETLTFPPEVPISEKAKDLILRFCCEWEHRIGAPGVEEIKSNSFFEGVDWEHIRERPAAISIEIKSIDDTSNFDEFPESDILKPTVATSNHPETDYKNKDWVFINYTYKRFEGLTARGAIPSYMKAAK
Assay [3] deals with Activin receptor type-1-like (Homo sapiens, UniProt P37023).
Activin receptor type-1-like, sequence (P37023 whole entry): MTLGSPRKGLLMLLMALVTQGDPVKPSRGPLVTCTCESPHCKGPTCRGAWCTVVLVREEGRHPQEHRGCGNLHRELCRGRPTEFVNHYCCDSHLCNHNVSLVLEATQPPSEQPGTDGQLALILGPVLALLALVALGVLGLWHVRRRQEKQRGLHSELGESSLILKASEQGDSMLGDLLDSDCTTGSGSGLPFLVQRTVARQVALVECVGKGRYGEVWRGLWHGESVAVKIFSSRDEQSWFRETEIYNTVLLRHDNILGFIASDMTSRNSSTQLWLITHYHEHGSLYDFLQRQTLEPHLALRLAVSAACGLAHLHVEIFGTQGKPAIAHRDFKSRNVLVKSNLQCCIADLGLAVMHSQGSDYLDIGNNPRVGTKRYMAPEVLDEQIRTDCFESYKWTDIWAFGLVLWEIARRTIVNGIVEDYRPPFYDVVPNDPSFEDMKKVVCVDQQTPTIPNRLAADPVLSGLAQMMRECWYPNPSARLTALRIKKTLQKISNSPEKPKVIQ
Assay [4] deals with ALK tyrosine kinase receptor (Homo sapiens, UniProt Q9UM73). It is filed as subcellular, K-562, COLO 205, SK-N-BE(2) and MV-4-11, Cell lysate. The conditions noted are these: read-out: Kd apparent.
In assay [5] the target is T2, Dual specificity mitogen-activated protein kinase kinase 4 (Homo sapiens, UniProt P45985).
T2 sequence (P45985 whole entry): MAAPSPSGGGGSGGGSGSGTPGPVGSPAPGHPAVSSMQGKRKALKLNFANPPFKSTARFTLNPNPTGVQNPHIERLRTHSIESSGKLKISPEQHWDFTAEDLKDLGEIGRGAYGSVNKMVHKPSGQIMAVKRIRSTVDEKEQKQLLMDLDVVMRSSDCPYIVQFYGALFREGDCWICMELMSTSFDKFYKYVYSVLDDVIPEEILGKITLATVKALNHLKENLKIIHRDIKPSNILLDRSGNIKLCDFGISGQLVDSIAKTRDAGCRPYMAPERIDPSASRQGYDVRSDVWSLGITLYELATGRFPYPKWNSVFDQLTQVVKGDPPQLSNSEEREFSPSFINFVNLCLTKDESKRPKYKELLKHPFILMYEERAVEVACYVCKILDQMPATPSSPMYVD

Assay [6] has as its target 5'-AMP-activated protein kinase subunit gamma-1 (Homo sapiens, UniProt P54619).
Assay [7] has as its target T3, Uncharacterized protein FLJ45252 (Homo sapiens, UniProt Q6ZSR9).
T3 sequence (Q6ZSR9 whole entry): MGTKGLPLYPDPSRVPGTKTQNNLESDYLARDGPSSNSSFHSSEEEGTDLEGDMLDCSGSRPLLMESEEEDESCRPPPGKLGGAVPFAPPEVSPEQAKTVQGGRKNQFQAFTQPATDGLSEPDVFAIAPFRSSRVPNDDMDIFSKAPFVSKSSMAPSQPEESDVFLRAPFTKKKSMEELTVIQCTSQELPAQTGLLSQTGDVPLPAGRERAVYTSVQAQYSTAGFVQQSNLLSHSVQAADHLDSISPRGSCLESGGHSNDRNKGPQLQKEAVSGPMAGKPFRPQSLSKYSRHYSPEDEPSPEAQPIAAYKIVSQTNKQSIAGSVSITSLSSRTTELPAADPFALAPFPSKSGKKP

Assay [8] concerns the target T4, General transcription and DNA repair factor IIH helicase subunit XPD (Homo sapiens, UniProt P18074).
T4 sequence (P18074 whole entry): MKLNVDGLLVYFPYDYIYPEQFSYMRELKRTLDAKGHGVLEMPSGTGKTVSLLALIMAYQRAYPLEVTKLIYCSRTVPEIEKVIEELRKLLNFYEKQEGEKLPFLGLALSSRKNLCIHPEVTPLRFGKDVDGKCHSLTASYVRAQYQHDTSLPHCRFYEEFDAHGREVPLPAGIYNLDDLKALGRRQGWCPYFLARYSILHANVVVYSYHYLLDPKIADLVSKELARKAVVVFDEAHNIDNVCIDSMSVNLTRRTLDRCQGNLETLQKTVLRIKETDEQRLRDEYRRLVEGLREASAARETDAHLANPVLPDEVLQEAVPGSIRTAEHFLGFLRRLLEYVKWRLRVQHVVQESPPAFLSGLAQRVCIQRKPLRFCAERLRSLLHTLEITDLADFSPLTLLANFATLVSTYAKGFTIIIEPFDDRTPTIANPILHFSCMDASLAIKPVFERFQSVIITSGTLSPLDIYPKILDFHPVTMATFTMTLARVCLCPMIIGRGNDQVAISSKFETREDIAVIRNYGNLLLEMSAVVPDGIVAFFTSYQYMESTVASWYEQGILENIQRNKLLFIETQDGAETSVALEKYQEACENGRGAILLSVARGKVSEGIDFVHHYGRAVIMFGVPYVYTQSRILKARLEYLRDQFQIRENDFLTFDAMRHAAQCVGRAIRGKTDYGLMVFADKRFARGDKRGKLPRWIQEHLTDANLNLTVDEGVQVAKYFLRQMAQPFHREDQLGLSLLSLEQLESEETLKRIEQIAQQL

The target in assay [9] is 5'-AMP-activated protein kinase subunit gamma-2 (Homo sapiens, UniProt Q9UGJ0).
5'-AMP-activated protein kinase subunit gamma-2, sequence (Q9UGJ0 whole entry): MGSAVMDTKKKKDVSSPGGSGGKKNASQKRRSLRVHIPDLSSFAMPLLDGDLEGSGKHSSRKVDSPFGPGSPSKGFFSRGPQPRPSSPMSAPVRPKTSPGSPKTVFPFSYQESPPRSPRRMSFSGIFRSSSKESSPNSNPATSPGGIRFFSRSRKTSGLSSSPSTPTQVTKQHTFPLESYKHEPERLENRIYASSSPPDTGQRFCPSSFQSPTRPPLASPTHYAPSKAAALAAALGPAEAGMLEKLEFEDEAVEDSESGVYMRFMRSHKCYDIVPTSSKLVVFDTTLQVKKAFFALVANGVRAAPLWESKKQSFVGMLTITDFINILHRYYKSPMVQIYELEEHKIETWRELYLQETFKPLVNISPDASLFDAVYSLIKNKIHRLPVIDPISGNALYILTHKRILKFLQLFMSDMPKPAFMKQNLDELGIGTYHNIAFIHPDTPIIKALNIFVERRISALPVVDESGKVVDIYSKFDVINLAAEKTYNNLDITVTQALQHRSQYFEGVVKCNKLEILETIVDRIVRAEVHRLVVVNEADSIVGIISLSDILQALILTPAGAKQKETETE
Assay [10] has as its target Tyrosine-protein kinase JAK2 (Homo sapiens, UniProt O60674).
Assay [11] deals with Dual specificity tyrosine-phosphorylation-regulated kinase 1B (Homo sapiens, UniProt Q9Y463).
Dual specificity tyrosine-phosphorylation-regulated kinase 1B, sequence (Q9Y463 whole entry): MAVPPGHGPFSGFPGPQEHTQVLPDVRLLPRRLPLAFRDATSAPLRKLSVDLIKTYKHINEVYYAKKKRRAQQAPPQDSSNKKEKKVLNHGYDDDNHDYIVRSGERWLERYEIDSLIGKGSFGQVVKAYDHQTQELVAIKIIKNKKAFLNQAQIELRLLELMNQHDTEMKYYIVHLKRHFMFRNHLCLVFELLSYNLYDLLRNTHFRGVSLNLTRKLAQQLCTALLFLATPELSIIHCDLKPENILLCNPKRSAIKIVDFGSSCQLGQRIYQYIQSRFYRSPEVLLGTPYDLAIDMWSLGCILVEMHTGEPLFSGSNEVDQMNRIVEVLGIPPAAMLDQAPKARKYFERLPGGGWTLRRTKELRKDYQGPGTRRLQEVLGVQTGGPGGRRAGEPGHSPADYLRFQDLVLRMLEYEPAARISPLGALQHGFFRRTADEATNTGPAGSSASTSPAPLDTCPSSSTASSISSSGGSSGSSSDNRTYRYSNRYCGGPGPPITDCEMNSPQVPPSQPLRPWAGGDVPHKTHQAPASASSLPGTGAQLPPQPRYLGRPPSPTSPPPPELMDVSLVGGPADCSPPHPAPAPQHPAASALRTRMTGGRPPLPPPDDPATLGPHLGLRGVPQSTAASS
Also: in the data inactive means no Kd found up to 30 µM.

5'-AMP-activated protein kinase subunit gamma-1, sequence (P54619 whole entry): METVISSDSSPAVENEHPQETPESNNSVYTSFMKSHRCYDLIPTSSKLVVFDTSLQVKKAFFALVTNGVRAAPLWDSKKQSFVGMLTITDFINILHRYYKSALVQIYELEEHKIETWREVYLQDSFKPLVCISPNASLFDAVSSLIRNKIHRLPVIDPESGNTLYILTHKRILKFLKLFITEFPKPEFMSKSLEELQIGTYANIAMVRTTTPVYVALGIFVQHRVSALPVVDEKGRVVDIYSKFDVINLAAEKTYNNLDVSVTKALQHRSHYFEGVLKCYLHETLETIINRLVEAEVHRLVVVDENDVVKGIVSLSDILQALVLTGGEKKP
Tyrosine-protein kinase JAK2, sequence (O60674 whole entry): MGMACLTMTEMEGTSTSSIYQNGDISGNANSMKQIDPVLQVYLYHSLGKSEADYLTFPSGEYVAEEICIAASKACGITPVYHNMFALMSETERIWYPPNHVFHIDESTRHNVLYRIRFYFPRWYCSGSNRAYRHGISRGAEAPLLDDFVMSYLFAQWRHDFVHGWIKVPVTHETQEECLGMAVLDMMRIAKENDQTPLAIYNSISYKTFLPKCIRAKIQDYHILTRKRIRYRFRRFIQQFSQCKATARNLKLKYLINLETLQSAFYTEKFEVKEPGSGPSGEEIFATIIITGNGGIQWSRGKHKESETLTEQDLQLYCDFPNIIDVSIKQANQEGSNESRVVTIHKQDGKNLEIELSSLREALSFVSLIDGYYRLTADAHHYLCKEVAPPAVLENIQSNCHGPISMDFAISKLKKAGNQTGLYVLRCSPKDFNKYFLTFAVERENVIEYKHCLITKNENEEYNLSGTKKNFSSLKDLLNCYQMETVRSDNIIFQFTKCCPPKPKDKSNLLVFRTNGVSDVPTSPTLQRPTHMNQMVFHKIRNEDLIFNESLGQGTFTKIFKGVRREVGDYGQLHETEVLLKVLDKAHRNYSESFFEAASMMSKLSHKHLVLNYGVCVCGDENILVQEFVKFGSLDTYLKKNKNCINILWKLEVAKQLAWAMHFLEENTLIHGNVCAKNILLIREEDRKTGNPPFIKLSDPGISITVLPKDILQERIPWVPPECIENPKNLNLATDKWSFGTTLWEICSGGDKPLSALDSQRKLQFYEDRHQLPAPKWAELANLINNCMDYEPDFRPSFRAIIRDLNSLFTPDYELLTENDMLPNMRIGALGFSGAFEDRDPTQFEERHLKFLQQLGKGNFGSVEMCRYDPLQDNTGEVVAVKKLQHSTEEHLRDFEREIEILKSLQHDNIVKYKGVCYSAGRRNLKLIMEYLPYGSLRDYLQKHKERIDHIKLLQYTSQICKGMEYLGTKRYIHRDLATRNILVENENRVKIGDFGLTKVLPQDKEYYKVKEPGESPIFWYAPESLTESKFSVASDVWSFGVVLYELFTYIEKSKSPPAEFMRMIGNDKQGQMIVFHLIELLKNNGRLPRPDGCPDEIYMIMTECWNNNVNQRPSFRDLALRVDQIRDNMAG

Consider `COc1cc(CCc2cc(NC(=O)c3ccc(N4C[C@@H](C)N[C@@H](C)C4)cc3)n[nH]2)cc(OC)c1` [AZD-4547], for which the Kd in assay [1], in [2], in [3] and in assay [4] was > 30 µM (inactive) throughout.
Take `CNC(=O)c1ccc(-c2cnc3ncc(Cc4ccc5ncccc5c4)n3n2)cc1F` [CAPMATINIB]: the Kd in [1], in assay [2] and in assay [3] was > 30 µM (inactive) each time.
With `CCc1cnn2c(NCc3ccc[n+]([O-])c3)cc(N3CCCC[C@H]3CCO)nc12` [DINACICLIB], the Kd in assay [5] is > 30 µM (inactive); in assay [1], > 30 µM (inactive); in [6], > 30 µM (inactive); in [7] it was > 30 µM (inactive); in assay [8], 0.56 µM (active); in assay [9], > 30 µM (inactive).
`CNC(=O)c1cc(Oc2ccc(NC(=O)Nc3ccc(Cl)c(C(F)(F)F)c3)c(F)c2)ccn1` [REGORAFENIB]: the Kd in [6], in assay [7], in [8] and in assay [9] was > 30 µM (inactive) in each case.
With `CC[C@@H]1C(=O)N(C)c2cnc(Nc3ccc(C(=O)N[C@H]4CC[C@H](N5CCN(CC6CC6)CC5)CC4)cc3OC)nc2N1C(C)C` [VOLASERTIB], the Kd in assay [6], in assay [7], in assay [8], in assay [9] and in [10] was > 30 µM (inactive) in each case.
Consider `CC[C@H](Nc1ncnc2[nH]cnc12)c1nc2cccc(F)c2c(=O)n1-c1ccccc1` [IDELALISIB], for which the Kd in assay [5], in assay [6], in assay [2], in assay [7], in assay [8] and in assay [9] was > 30 µM (inactive) in each case. Moreover, in assay [11], the Kd is > 30 µM (inactive).
Consider `CC(=O)Nc1cccc(-n2c(=O)n(C3CC3)c(=O)c3c(Nc4ccc(I)cc4F)n(C)c(=O)c(C)c32)c1` [TRAMETINIB], for which the Kd in [5], in assay [3], in assay [11] and in [10] was > 30 µM (inactive) throughout.
